From PubChem BioAssay (NCI)
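The compound was tested at five concentrations on cells cultured in 96-well plates, with a 48-hour exposure period. Definition used: TGI = concentration required for complete inhibition of growth.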

Columns and labels:
Assay in all cases: DTP human tumour cell line panel, 48 h
786-0 renal = test system: 786-0 renal
A498 renal = test system: A498 renal
A549 NSCLC = test system: A549 NSCLC
ACHN renal = test system: ACHN renal
BT-549 breast = test system: BT-549 breast
CAKI-1 renal = test system: CAKI-1 renal
CCRF-CEM leukemia = test system: CCRF-CEM leukemia
COLO 205 colon = test system: COLO 205 colon
DU-145 prostate = test system: DU-145 prostate
EKVX NSCLC = test system: EKVX NSCLC
HCT-116 colon = test system: HCT-116 colon
HCT-15 colon = test system: HCT-15 colon
HOP-62 NSCLC = test system: HOP-62 NSCLC
HOP-92 NSCLC = test system: HOP-92 NSCLC
HS 578T breast = test system: HS 578T breast
HT29 colon = test system: HT29 colon
IGROV1 ovarian = test system: IGROV1 ovarian
K-562 leukemia = test system: K-562 leukemia
KM12 colon = test system: KM12 colon
LOX IMVI melanoma = test system: LOX IMVI melanoma
M14 melanoma = test system: M14 melanoma
MALME-3M melanoma = test system: MALME-3M melanoma
MCF7 breast = test system: MCF7 breast
MDA-MB-231 breast = test system: MDA-MB-231 breast
MDA-MB-435 = test system: MDA-MB-435
MDA-N = test system: MDA-N
MOLT-4 leukemia = test system: MOLT-4 leukemia
NCI-H226 lung = test system: NCI-H226 lung
NCI-H23 lung = test system: NCI-H23 lung
NCI-H460 lung = test system: NCI-H460 lung
NCI-H522 lung = test system: NCI-H522 lung
NCI/ADR-RES ovarian = test system: NCI/ADR-RES ovarian
OVCAR-3 ovarian = test system: OVCAR-3 ovarian
OVCAR-4 ovarian = test system: OVCAR-4 ovarian
OVCAR-5 ovarian = test system: OVCAR-5 ovarian
OVCAR-8 ovarian = test system: OVCAR-8 ovarian
PC-3 prostate = test system: PC-3 prostate
RPMI-8226 leukemia = test system: RPMI-8226 leukemia
RXF 393 renal = test system: RXF 393 renal
SF-268 CNS = test system: SF-268 CNS
SF-295 CNS = test system: SF-295 CNS
SF-539 CNS = test system: SF-539 CNS
SK-MEL-2 melanoma = test system: SK-MEL-2 melanoma
SK-MEL-28 melanoma = test system: SK-MEL-28 melanoma
SK-MEL-5 melanoma = test system: SK-MEL-5 melanoma
SK-OV-3 ovarian = test system: SK-OV-3 ovarian
SN12C renal = test system: SN12C renal
SNB-19 CNS = test system: SNB-19 CNS
SNB-75 CNS = test system: SNB-75 CNS
SR leukemia = test system: SR leukemia
SW-620 colon = test system: SW-620 colon
T-47D breast = test system: T-47D breast
TK-10 renal = test system: TK-10 renal
U251 CNS = test system: U251 CNS
UACC-257 melanoma = test system: UACC-257 melanoma
UACC-62 melanoma = test system: UACC-62 melanoma
HCC-2998 colon = test system: HCC-2998 colon
HL-60(TB) leukemia = test system: HL-60(TB) leukemia
UO-31 renal = test system: UO-31 renal

NC(Cc1nn[nH]n1)C(=O)O (stereo unspecified)
TGI (786-0 renal): > 100 µM | TGI (A498 renal): > 100 µM | TGI (A549 NSCLC): > 100 µM | TGI (ACHN renal): > 100 µM | TGI (BT-549 breast): > 100 µM | TGI (CAKI-1 renal): > 100 µM | TGI (CCRF-CEM leukemia): > 100 µM | TGI (COLO 205 colon): > 100 µM | TGI (DU-145 prostate): > 100 µM | TGI (EKVX NSCLC): > 100 µM | TGI (HCT-116 colon): > 100 µM | TGI (HCT-15 colon): > 100 µM | TGI (HOP-62 NSCLC): > 100 µM | TGI (HOP-92 NSCLC): > 100 µM | TGI (HS 578T breast): > 100 µM | TGI (HT29 colon): > 100 µM | TGI (IGROV1 ovarian): > 100 µM | TGI (K-562 leukemia): > 100 µM | TGI (KM12 colon): > 100 µM | TGI (LOX IMVI melanoma): > 100 µM | TGI (M14 melanoma): > 100 µM | TGI (MALME-3M melanoma): > 100 µM | TGI (MCF7 breast): > 100 µM | TGI (MDA-MB-231 breast): > 100 µM | TGI (MDA-MB-435): > 100 µM | TGI (MDA-N): > 100 µM | TGI (MOLT-4 leukemia): > 100 µM | TGI (NCI-H226 lung): > 100 µM | TGI (NCI-H23 lung): > 100 µM | TGI (NCI-H460 lung): > 100 µM | TGI (NCI-H522 lung): > 100 µM | TGI (NCI/ADR-RES ovarian): > 100 µM | TGI (OVCAR-3 ovarian): > 100 µM | TGI (OVCAR-4 ovarian): > 100 µM | TGI (OVCAR-5 ovarian): > 100 µM | TGI (OVCAR-8 ovarian): > 100 µM | TGI (PC-3 prostate): > 100 µM | TGI (RPMI-8226 leukemia): > 100 µM | TGI (RXF 393 renal): > 100 µM | TGI (SF-268 CNS): > 100 µM | TGI (SF-295 CNS): > 100 µM | TGI (SF-539 CNS): > 100 µM | TGI (SK-MEL-2 melanoma): > 100 µM | TGI (SK-MEL-28 melanoma): > 100 µM | TGI (SK-MEL-5 melanoma): > 100 µM | TGI (SK-OV-3 ovarian): > 100 µM | TGI (SN12C renal): > 100 µM | TGI (SNB-19 CNS): > 100 µM | TGI (SNB-75 CNS): > 100 µM | TGI (SR leukemia): > 100 µM | TGI (SW-620 colon): > 100 µM | TGI (T-47D breast): > 100 µM | TGI (TK-10 renal): > 100 µM | TGI (U251 CNS): > 100 µM | TGI (UACC-257 melanoma): > 100 µM | TGI (UACC-62 melanoma): > 100 µM

[N-]=[N+]=NC1(c2ccccc2)C(=O)Nc2ccccc2C1=O (stereo unspecified)
TGI (786-0 renal): > 100 µM | TGI (A498 renal): 43.4 µM | TGI (A549 NSCLC): > 100 µM | TGI (ACHN renal): > 100 µM | TGI (BT-549 breast): 34.8 µM | TGI (CAKI-1 renal): > 100 µM | TGI (CCRF-CEM leukemia): > 100 µM | TGI (COLO 205 colon): > 100 µM | TGI (DU-145 prostate): > 100 µM | TGI (HCC-2998 colon): > 100 µM | TGI (HCT-116 colon): > 100 µM | TGI (HCT-15 colon): > 100 µM | TGI (HL-60(TB) leukemia): > 100 µM | TGI (HOP-62 NSCLC): > 100 µM | TGI (HOP-92 NSCLC): 84.5 µM | TGI (HS 578T breast): 76.9 µM | TGI (HT29 colon): > 100 µM | TGI (IGROV1 ovarian): > 100 µM | TGI (K-562 leukemia): > 100 µM | TGI (KM12 colon): > 100 µM | TGI (LOX IMVI melanoma): > 100 µM | TGI (M14 melanoma): 74.6 µM | TGI (MALME-3M melanoma): > 100 µM | TGI (MCF7 breast): > 100 µM | TGI (MDA-MB-231 breast): > 100 µM | TGI (MDA-MB-435): 44.1 µM | TGI (MDA-N): > 100 µM | TGI (MOLT-4 leukemia): 76.6 µM | TGI (NCI-H23 lung): > 100 µM | TGI (NCI-H460 lung): > 100 µM | TGI (NCI/ADR-RES ovarian): > 100 µM | TGI (OVCAR-3 ovarian): > 100 µM | TGI (OVCAR-4 ovarian): > 100 µM | TGI (OVCAR-5 ovarian): > 100 µM | TGI (PC-3 prostate): > 100 µM | TGI (RPMI-8226 leukemia): > 100 µM | TGI (RXF 393 renal): 75.9 µM | TGI (SF-268 CNS): > 100 µM | TGI (SF-295 CNS): > 100 µM | TGI (SF-539 CNS): > 100 µM | TGI (SK-MEL-2 melanoma): 67.3 µM | TGI (SK-MEL-28 melanoma): > 100 µM | TGI (SK-MEL-5 melanoma): 33.1 µM | TGI (SK-OV-3 ovarian): > 100 µM | TGI (SN12C renal): > 100 µM | TGI (SNB-19 CNS): > 100 µM | TGI (SNB-75 CNS): > 100 µM | TGI (SR leukemia): > 100 µM | TGI (SW-620 colon): 82.4 µM | TGI (T-47D breast): > 100 µM | TGI (TK-10 renal): > 100 µM | TGI (U251 CNS): > 100 µM | TGI (UACC-257 melanoma): > 100 µM | TGI (UACC-62 melanoma): 76.3 µM | TGI (UO-31 renal): 73.8 µM
